In this assay the target is TMV-CP (tobacco mosaic virus coat protein) (Tobacco mosaic virus (vulgare), UniProt P69687). The experiment in a line: microscale thermophoresis. The class given is binding. On the technique in general: In MST a laser heats a spot of the sample, and binding alters the fluorescence response.

Our source for the Kd values is paper PMC8600648 (ACS Omega, 2021).

Sequence of TMV-CP (tobacco mosaic virus coat protein) (P69687 2-159 limits assumed): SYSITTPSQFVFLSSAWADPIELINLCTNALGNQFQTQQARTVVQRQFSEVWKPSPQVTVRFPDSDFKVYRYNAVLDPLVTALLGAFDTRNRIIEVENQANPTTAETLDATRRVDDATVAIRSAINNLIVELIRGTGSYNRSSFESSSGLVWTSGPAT

`O=c1c(O)c(-c2cc(O)c(O)c(O)c2)oc2cc(O)cc(O)c12` [myricetin, 3,5,7-trihydroxy-2-(3′,4′,5′-trihydroxyphenyl)-4H-chromen-4-one]: the Kd – broadly, the equilibrium constant for the complex coming apart – was 62.2 ± 22.2 µM.
